Activity calls are given as the source filed them. The rule behind the calls is not given here.
Tests used:
HT-29 [1] = experiment: Anti-necroptic activity against human HT-29 cells assessed as cell viability pretreated with compound followed by TNF-alpha/Smac mimetic/Z-VAD-FMK stimulation for 16 hrs by Cell Titer Glo assay; type: functional, cell-based
[2] = Cytotoxicity against human HT-29 cells by Cell Titer Glo assay; type: toxicity, cell-based
HT-29 [3] = experiment: Anti-necroptic activity against human HT-29 cells assessed as cell viability pretreated with compound followed by TNF-alpha/Smac mimetic/Z-VAD-FMK stimulation for 12 hrs by Cell Titer Glo assay; type: functional, cell-based; details: dose 0.39-50 nM
HT-29 [4] = experiment: Anti-necroptic activity against human HT-29 cells assessed as cell viability pretreated with compound followed by TNF-alpha/Cycloheximide/Z-VAD-FMK stimulation for 16 hrs by Cell Titer Glo assay; type: functional, cell-based; details: dose 0.39-50 nM
L-292 = experiment: Anti-necroptic activity against mouse […] cells assessed as cell viability pretreated with compound followed by TNF-alpha/Z-VAD-FMK stimulation for 12 hrs by Cell Titer Glo assay; type: functional, cell-based; details: dose 0.078-10 µM
HT-29 [5] = experiment: Anti-necroptic activity against human HT-29 cells assessed as cell viability upto 10 uM pretreated with compound followed by TNF-alpha/Smac mimetic stimulation for 24 hrs by Cell Titer Glo assay; type: functional, cell-based
HT-29 [6] = experiment: Anti-necroptic activity against human HT-29 cells assessed as cell viability upto 10 uM pretreated with compound followed by TNF-alpha/Cycloheximide stimulation for 36 hrs by Cell Titer Glo assay; type: functional, cell-based
[7] = biological target: T1, Receptor-interacting serine/threonine-protein kinase 1 (Homo sapiens) (UniProt Q13546); experiment: Inhibition of RIPK1 phosphorylation in human HT-29 cells at 10 nM preincubated for 6 hrs followed by TSZ stimulation by Western blot analysis relative to control; type: cell-based
T1 sequence (whole entry): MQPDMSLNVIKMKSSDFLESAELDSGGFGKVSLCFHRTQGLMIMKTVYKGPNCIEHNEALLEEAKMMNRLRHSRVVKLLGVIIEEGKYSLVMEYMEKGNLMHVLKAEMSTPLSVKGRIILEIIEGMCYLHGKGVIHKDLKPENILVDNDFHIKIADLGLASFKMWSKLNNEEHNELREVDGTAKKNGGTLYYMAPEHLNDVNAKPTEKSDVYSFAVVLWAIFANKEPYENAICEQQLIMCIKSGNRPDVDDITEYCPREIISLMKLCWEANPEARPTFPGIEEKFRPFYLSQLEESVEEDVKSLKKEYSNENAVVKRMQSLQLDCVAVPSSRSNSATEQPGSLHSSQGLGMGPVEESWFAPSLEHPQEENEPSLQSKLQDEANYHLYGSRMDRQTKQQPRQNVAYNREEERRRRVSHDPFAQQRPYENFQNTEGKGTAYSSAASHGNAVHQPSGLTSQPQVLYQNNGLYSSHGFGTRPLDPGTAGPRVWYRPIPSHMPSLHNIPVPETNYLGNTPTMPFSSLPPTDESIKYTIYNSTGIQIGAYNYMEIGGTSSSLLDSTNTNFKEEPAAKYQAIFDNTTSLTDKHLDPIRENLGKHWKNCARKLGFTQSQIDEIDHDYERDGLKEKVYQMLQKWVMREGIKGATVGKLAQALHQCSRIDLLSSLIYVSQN

[8] = biological target: T1, Receptor-interacting serine/threonine-protein kinase 1 (Homo sapiens); experiment: Inhibition of RIPK1 in human HT-29 cells assessed as decrease in RIPK3 phosphorylation at 10 nM preincubated for 6 hrs followed by TSZ stimulation by Western blot analysis relative to control; type: cell-based
[9] = biological target: T1, Receptor-interacting serine/threonine-protein kinase 1 (Homo sapiens); experiment: Inhibition of RIPK1 in human HT-29 cells assessed as decrease in MLKL phosphorylation at 10 nM preincubated for 6 hrs followed by TSZ stimulation by Western blot analysis relative to control; type: cell-based
[10] = biological target: T1, Receptor-interacting serine/threonine-protein kinase 1 (Homo sapiens); experiment: Inhibition of RIPK1 phosphorylation in human HT-29 cells assessed as decrease in necrosomes development at 10 nM incubated for 6 hrs by Western blot analysis; type: cell-based
Mus musculus [11] = experiment: Anti-necroptic activity in TNF-alpha/Z-VAD-FMK-induced SIRS C57BL/6J mouse model assessed as decrease in hypothermia at 2.5 to 10 mg/kg, po pre-administered via gavage for 1 hr followed by […] of Z-VAD-FMK stimulation for 15 mins and subsequent TNF-alpha stimulation for 45 mins and re-current […] of Z-VAD-FMK stimulation measured after 2 to 3 hrs post- TNF-alpha stimulation; type: functional, organism-based; details: dose 2.5-10 mg/kg, time 240-300 min
Mus musculus [12] = experiment: (§1) Anti-necroptic activity in TNF-alpha/Z-VAD-FMK-induced SIRS C57BL/6J mouse model assessed as survival rate at 2.5 mg/kg, po pre-administered via gavage for 1 hr followed by […] of Z-VAD-FMK stimulation for 15 mins and subsequent TNF-alpha stimulation for 45 mins and re-current […] of Z-VAD-FMK stimulation measured after 4 hrs post- TNF-alpha stimulation relative to control; type: functional; details: 6 h, time 360 min
Mus musculus [13] = experiment: as §1, with “5” for “2.5”; type: functional; details: 6 h, time 360 min
Mus musculus [14] = experiment: as §1, with “10” for “2.5”; type: functional; details: 6 h, time 360 min
Mus musculus [15] = experiment: (§2) Anti-necroptic activity in TNF-alpha/Z-VAD-FMK-induced SIRS C57BL/6J mouse model assessed as decrease in serum IL-1beta level at 2.5 to 10 mg/kg, po pre-administered via gavage for 1 hr followed by […] of Z-VAD-FMK stimulation for 15 mins and subsequent TNF-alpha stimulation for 45 mins and re-current […] of Z-VAD-FMK stimulation measured after 4 hrs post- TNF-alpha stimulation by ELISA; type: functional, organism-based; details: dose 2.5-10 mg/kg, time 360.0 min
Mus musculus [16] = experiment: as §2, with “IL-6” for “IL-1beta”; type: functional, organism-based; details: dose 2.5-10 mg/kg, time 360.0 min
[17] = biological target: T1, Receptor-interacting serine/threonine-protein kinase 1 (Homo sapiens); experiment: Inhibition of RIPK1 phosphorylation in human HT-29 cells preincubated for 6 hrs followed by TSZ stimulation by Western blot analysis; type: cell-based; details: dose 1-10 nM
[18] = biological target: T1, Receptor-interacting serine/threonine-protein kinase 1 (Homo sapiens); experiment: Inhibition of RIPK1 in human HT-29 cells assessed as decrease in RIPK3 phosphorylation preincubated for 6 hrs followed by TSZ stimulation by Western blot analysis; type: cell-based; details: dose 1-10 nM
[19] = biological target: T1, Receptor-interacting serine/threonine-protein kinase 1 (Homo sapiens); experiment: Inhibition of RIPK1 in human HT-29 cells assessed as decrease in MLKL phosphorylation preincubated for 6 hrs followed by TSZ stimulation by Western blot analysis relative to control; type: cell-based; details: dose 1-10 nM
Mus musculus [20] = experiment: Anti-necroptic activity in TNF-alpha/Z-VAD-FMK-induced SIRS C57BL/6J mouse model assessed as survival rate at 2.5 mg/kg, po pre-administered via gavage for 1 hr followed by […] of Z-VAD-FMK stimulation for 15 mins and subsequent TNF-alpha stimulation for 45 mins and re-current […] of Z-VAD-FMK stimulation and measured after 60 hrs relative to control; type: functional; details: 62 h, time 3720 min

| SMILES | EC50 (HT-29 [1]) [nM] | CC50 [2] [nM] | other results |
| --- | --- | --- | --- |
| CN1C(=O)[C@@H](NC(=O)c2n[nH]c(Cc3ccccc3)n2)COc2ccc(-c3ccccc3C#N)cc21 | 3 | > 100000 | – |
| Cc1ccc(-c2ccc3c(c2)N(C)C(=O)[C@@H](NC(=O)c2n[nH]c(Cc4ccccc4)n2)CO3)cc1 | 10.9 | > 100000 | – |
| Cc1cccc(C)c1-c1ccc2c(c1)N(C)C(=O)[C@@H](NC(=O)c1n[nH]c(Cc3ccccc3)n1)CO2 | > 100 | > 100000 | – |
| CN1C(=O)[C@@H](NC(=O)c2n[nH]c(Cc3ccccc3)n2)COc2ccc(-c3ccccc3-c3ccccc3)cc21 | > 100 | > 100000 | – |
| CN1C(=O)[C@@H](NC(=O)c2n[nH]c(Cc3ccccc3)n2)COc2ccc(-c3cccc(F)c3)cc21 | 8.8 | > 100000 | – |
| CN1C(=O)[C@@H](NC(=O)c2n[nH]c(Cc3ccccc3)n2)COc2ccc(-c3cccc(C#N)c3)cc21 | 8.3 | > 100000 | – |
| CN1C(=O)[C@@H](NC(=O)c2n[nH]c(Cc3ccccc3)n2)COc2ccc(-c3ccc(Cl)cc3)cc21 | 12.5 | > 100000 | – |
| CN1C(=O)[C@@H](NC(=O)c2n[nH]c(Cc3ccccc3)n2)COc2ccc(-c3ccc(O)cc3)cc21 | 29.9 | > 100000 | – |
| CN1C(=O)[C@@H](NC(=O)c2n[nH]c(Cc3ccccc3)n2)COc2ccc(-c3ccccc3F)cc21 | 7.6 | > 100000 | – |
| COc1ccccc1-c1ccc2c(c1)N(C)C(=O)[C@@H](NC(=O)c1n[nH]c(Cc3ccccc3)n1)CO2 | 10 | > 100000 | – |
| CN1C(=O)[C@@H](NC(=O)c2n[nH]c(Cc3ccccc3)n2)COc2ccc(-c3ccncc3)cc21 | 3.3 | > 100000 | – |
| CN1C(=O)[C@@H](NC(=O)c2n[nH]c(Cc3ccccc3)n2)COc2ccc(-c3ccoc3)cc21 | 3.4 | > 100000 | – |
| Cc1ccccc1-c1ccc2c(c1)N(C)C(=O)[C@@H](NC(=O)c1n[nH]c(Cc3ccccc3)n1)CO2 | 82.7 | > 100000 | – |
| CN1C(=O)[C@@H](NC(=O)c2n[nH]c(Cc3ccccc3)n2)COc2ccc(-c3ccc(C#N)cc3)cc21 | 1.7 | > 100000 | Activity (HT-29 [3]): Dose-Dependent Effect; Activity (HT-29 [4]): Dose-Dependent Effect; Activity (L-292): Dose-Dependent Effect; Activity (HT-29 [5]): inactive; Activity (HT-29 [6]): inactive; inhibition [7]: 100%; inhibition [8]: 100%; inhibition [9]: 100%; inhibition [10]: Active; Activity (Mus musculus [11]): Active; survival at 2.5 mg/kg (Mus musculus [12]): 66%; survival at 5 mg/kg (Mus musculus [13]): 91%; survival at 10 mg/kg (Mus musculus [14]): 100%; Activity (Mus musculus [15]): Active; Activity (Mus musculus [16]): Active; inhibition [17]: Dose-Dependent Effect; inhibition [18]: Dose-Dependent Effect; inhibition [19]: Dose-Dependent Effect |
| CN1C(=O)[C@@H](NC(=O)c2n[nH]c(Cc3ccccc3)n2)COc2ccc(-c3cncnc3)cc21 | 5.8 | > 100000 | – |
| CN1C(=O)[C@@H](NC(=O)c2n[nH]c(Cc3ccccc3)n2)COc2ccc(-c3ccccc3)cc21 | 8.3 | > 100000 | – |
| Cc1cccc(-c2ccc3c(c2)N(C)C(=O)[C@@H](NC(=O)c2n[nH]c(Cc4ccccc4)n2)CO3)c1 | 14.1 | > 100000 | – |
| CN1C(=O)[C@@H](NC(=O)c2n[nH]c(Cc3ccccc3)n2)COc2ccc(-c3ccc(-c4ccccc4)cc3)cc21 | 32.9 | > 100000 | – |
| COc1ccc(-c2ccc3c(c2)N(C)C(=O)[C@@H](NC(=O)c2n[nH]c(Cc4ccccc4)n2)CO3)cc1 | 3.5 | > 100000 | – |
| CN1C(=O)[C@@H](NC(=O)c2n[nH]c(Cc3ccccc3)n2)COc2ccc(-c3cccc(-c4ccccc4)c3)cc21 | 27.3 | > 100000 | – |
| CN1C(=O)[C@@H](NC(=O)c2n[nH]c(Cc3ccccc3)n2)COc2ccc(-c3ccco3)cc21 | 3.8 | > 100000 | – |
| CN1C(=O)[C@@H](NC(=O)c2n[nH]c(Cc3ccccc3)n2)COc2ccc(-c3cccc(Cl)c3)cc21 | 56.8 | > 100000 | – |
| COc1cccc(-c2ccc3c(c2)N(C)C(=O)[C@@H](NC(=O)c2n[nH]c(Cc4ccccc4)n2)CO3)c1 | 3 | > 100000 | – |
| CN1C(=O)[C@@H](NC(=O)c2n[nH]c(Cc3ccccc3)n2)COc2ccc(-c3cccc(O)c3)cc21 | 11.7 | > 100000 | – |
| CN1C(=O)[C@@H](NC(=O)c2n[nH]c(Cc3ccccc3)n2)COc2ccc(-c3ccccc3Cl)cc21 | 20.3 | > 100000 | – |
| CN1C(=O)[C@@H](NC(=O)c2nnc(Cc3ccccc3)[nH]2)COc2ccccc21 [GSK2982772] | 2.9 | > 100000 | survival at 2.5 mg/kg (Mus musculus [20]): 50% |
| CN1C(=O)[C@@H](NC(=O)c2n[nH]c(Cc3ccccc3)n2)COc2ccc(-c3ccccc3O)cc21 | 60 | > 100000 | – |
| CN1C(=O)[C@@H](NC(=O)c2n[nH]c(Cc3ccccc3)n2)COc2ccc(-c3ccc(F)cc3)cc21 | 9.8 | > 100000 | – |

Reference: ChEMBL document CHEMBL5523692, “Discovery of novel biaryl benzoxazepinones as dual-mode receptor-interacting protein kinase-1 (RIPK1) inhibitors” (Bioorg Med Chem, 2024)
